Data on 1 compound can be found in US20250034182A1, “PHOSPHOLIPID COMPOUNDS AND METHODS OF MAKING AND USING THE SAME” (priority 2021, published 2025).

Experiment [1] has as its system Recombinant Respiratory Syncytial virus strain A2 containing the firefly luciferase reporter (RSV-Fluc) in NHBE cells. In words: RSV NHBE FLuc EC50 (Example I). The following applies: human respiratory syncytial virus, 72 h, read-out: RSV NHBE FLuc EC50 (nM) (per Ex. I). The class given is cell-based. An outline of the steps:
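NHBE primary cells (passage 2-4) treated with threefold compound dilutions and infected with RSV A2 firefly-luciferase reporter virus at MOI 0.1; 3 days at 37° C, 5% CO2. ONE-Glo luminescence normalized to uninfected and infected DMSO controls; EC50 from non-linear regression, duplicates with two technical repeats.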

For experiment [2], the system named is CAN97-83-GFP1 (A2a) hMPV in H1-HeLa cells. In words: hMPV H1-Hela EC50, anti-nucleoprotein ELISA (Example X). Type of experiment: cell-based. The following applies: human metapneumovirus, 96 h, read-out: hMPV H1-Hela EC50 (nM) (per Ex. X). As to the method:
The human metapneumoavirus (hMPV) anti-viral assay is an anti-nucleoprotein ELISA performed in infected H1-HeLa cells. H1-HeLa cells were maintained in Dulbecco's Modified Eagle's Medium with high glucose (Gibco, Cat #: 11995073) supplemented with 10% FBS (HyClone, Cat #: SH303396.03), 100 units/mL penicillin and 100 μg/mL streptomycin (Gibco, Cat #: 15140122). One day before infection, H1-HeLa cells were seeded into 96-well plates (Corning, Cat. #: 3903) at 0.1 mL/well at 1.5×10^5 cells/mL in Opti-MEM (Gibco, Cat #: 31985070) supplemented with 2% FBS, and were incubated at 37° C. in a 100% humid atmosphere containing 5% (v/v) CO2 overnight. On the next day, CAN97-83-GFP1 (A2a) hMPV was diluted in Opti-MEM medium containing 200 μg/mL CaCl2) and 2 μg/mL TPCK treated trypsin and distributed to the 96-well plates at 0.1 mL/well for an MOI=0.1. Test compounds were distributed to each well using a HP D300e digital dispenser with a final volume of 200 µL/well. After the plates were centrifuged at 700 g for one hour at room temperature, they were maintained in a humidified chamber at 37-C with 5% (v/v) CO2 for 96 hours. After the incubation, the medium was removed, and the plates were fixed with 0.1 mL/well 1% formaldehyde for 15 min at room temperature. The fixative was removed, the plates were air dried for 30-60 minutes, and then permeabilized with 0.1 mL/well 0.5% Triton X-100 in PBS for five minutes at room temperature. Following permeabilization, the plates were washed once with 0.1 mL/well blocking buffer consisting of 10% FBS (HyClone, Cat #: SH303396.03), 5% dry milk (AmericanBio, Cat #: AB10109-01000), and 0.1% Tween 20 (EMD Millipore, Cat #655204) in PBS. The plates were blocked with 0.1 mL/well blocking buffer for 60 minutes at 37° C. afterward. The blocking buffer was removed and 0.05 mL/well human metapneumovirus nucleocapsid antibody (Sigma, Cat #MAB80121) diluted 1:500 in Blocking buffer was added and incubated for two hours at 37-C. The plates were then washed with 0.2 mL/well 0.1% Tween 20/PBS five times, followed by addition of 0.05 mL/well of horseradish peroxidase (HRP) conjugated goat anti-mouse IgG antibody (Fisher Scientific, Cat #501077607) at 1:2000 dilution in the blocking buffer. After one-hour incubation at 37-C, plates were washed five times with 0.2 mL/well 0.1% tween 20 in PBS. The HRP signals were developed by adding 0.1 mL/well of TMB reagent (Thermo Scientific, Cat #: ENN301) and incubating at room until the positive control was apparent. At that point, the reaction was stopped by adding 0.1 mL/well TMB stop solution (SeraCare, Cat #: 5150-0021). The absorbance was measured at 450 nm with an EnVision plate reader. The relative absorbance was calculated by normalizing the absorbance of the compound-treated groups to that of the DMSO-treated groups (set as 100%). EC50 values were calculated using a nonlinear four parameter variable slope regression model.
For orientation: An ELISA detects its analyte on a solid surface through an enzyme-linked reagent.

Each structure is given as a SMILES string.

For orientation: EC50 means the concentration at which the effect is half-maximal. For the compound `CCCCCCCCCCCCCCCCCCOC[C@H](COP(=O)(O)OC[C@@]1(C#N)O[C@@H](c2ccc3c(N)ncnn23)[C@H](O)[C@@H]1O)OCc1cccc(C#N)n1` [Compound 68, ((2R,3S,4R)-5-(4-aminopyrrolo[2,1-f][1,2,4]triazin-7-yl)-2-cyano-3,4-dihydroxytetrahydrofuran-2-yl)methyl ((R)-2-((6-cyanopyridin-2-yl)methoxy)-3-(octadecyloxy)propyl) hydrogen phosphate], the EC50 in experiment [1] was 36 nM; in experiment [2], 214 nM.
